Measured values published in US12139488B2, “Pyrido[3,2-d]pyrimidine compounds uses thereof for treating a proliferative disease” (Universite de Montreal, priority 2021, dated 2024).

What was measured:
[1] = system: pERK in SW480 cells (KRAS G12D); assay: Phospho-ERK inhibition (AlphaLISA), SW480; assay type: cell-based, human; conditions: SW480 cells; for SW480 pERK Ymin %: Ymin in brackets; for IC50: class symbol before the bracket
Procedure: (§1) All cancer cell lines (A375, A101D, A2058, RKO, HT29 SK-MEL 30, IPC298, HepG2, HCT-116, Lovo, SWV620, SW480, NCI-H358, NCI-H2122, Calu-6, NCIH2087, NCIH1755, NCIH1666 and Mewo) were obtained from ATCC and cultured in RPMI-1640 medium (Gibco) supplemented with 5% heat inactivated fetal bovine serum (FBS, Wisent) at 37° C. under 5% CO2. Cells were maintained in T175 flasks (Greiner). They were passaged by removing the culture medium, washing once in 10 mL of room temperature Phosphate Buffered Saline (PBS; Wisent) and incubating at 37° C. with 2 mL of 0.05% Trypsin (Thermo-Fisher). Trypsin was then inactivated by adding complete growth medium and the cells were then replated in a T175 culture dish at the appropriate dilution. All cell lines were routinely tested for mycoplasma contamination. Tissue type and mutational status of each cell line can be found in Table B.
(§2) AlphaLISA® SureFire® Ultra™ p-ERK 1/2 (Thr202/Tyr204) analysis was conducted on cells plated in 100 μL of complete RPMI-1640 growth medium in 96-well flat-bottomed transparent dishes (Costar) at a density indicated in Table C. Cells were maintained overnight at 37° C. under 5% CO2 before treatment with compounds' dilution series for one hour. The cell density in cells/cm^2 corresponds to cell number divided by the area of one well of a 96-well plate ([…]).
(§3) In a dilution series 100 μL/well of test substance dilution prepared in complete RPMI-1640 growth media was added to the cells. The dilution series is selected so that ten concentrations cover a range from 10 μM to 0.33 nM. If necessary the initial concentration of 10 μM is increased to 100 μM or lowered to 1 μM (as in the case of A375 and H1666 cells, which are generally more sensitive to the compounds) and further dilution is carried out accordingly. The final concentration of DMSO in the assay is set at 0.5%.
(§4) After treatment, media was removed and cells were lysed in 50 μL of 1× AlphaScreen Ultra Lysis Buffer (Perkin Elmer). The AlphaLISA® SureFire® Ultra™ p-ERK 1/2 (Thr202/Tyr2O4) (PerkinElmer) reactions were performed with 5 μL of cell lysate according to the manufacturer's specifications in 384-well proxyplates (Perkin Elmer) followed by overnight incubation of the reactions at room temperature in a humidified chamber. After completion of the reactions, the signals were recorded on an EnVision plate reader (Perkin Elmer) using built in AlphaLISA® settings.
(§5) The effect of each compound dilution on the pERK signal was expressed in % inhibition and calculated as follows. An internal 100% inhibition control ([…] trametinib, cat #HY-10999; MedChem Express; CAS #871700-17-3) was included in each plate and used as a measure of pERK background. First, the value obtained for trametinib was subtracted from each data point. The average of DMSO (vehicle) controls (set as 0% inhibition) was established and used to calculate % inhibition: % inhibition=100*(1-((pERK signalcompound)/(pERK signalDMSO)))
(§6) The ability of each compound to inhibit pERK signal was expressed as an IC50 value obtained by plotting the inhibition values for each data point of a dilution series and fitting the obtained curves using a log(agonist) versus response-variable slope (four parameters) function using GraphPadPrism (V7.0) or Dotmatics Screening Ultra platform.
(§7) When present, paradoxical pERK induction is inferred from the negative % inhibition values observed in the pERK IC50 curves of a compound.

[2] = system: pERK in HCT-116 cells (KRAS G13D); assay: Phospho-ERK inhibition (AlphaLISA SureFire Ultra p-ERK 1/2), HCT116; assay type: cell-based, human; conditions: HCT116 cells; for HCT116 pERK Ymin %: Ymin in brackets
Procedure: as §1, §2, §3, §4, §5, §6, §7

[3] = class symbol before the bracket

IC50 [1] [nM]	IC50 [2, 3] [nM]	IC50 ([2]; class symbol) [nM]	SMILES	SW480 pERK Ymin % [1] [%]	HCT116 pERK Ymin % [2] [%]
–	–	< 500	O=C1CCCN1c1cn(-c2ccc3ncnc(Nc4c(F)ccc(NS(=O)(=O)c5cccc(Cl)c5Cl)c4F)c3n2)c2ccccc12 [Example 511]	–	–
–	–	1000 to 10000	O=S(=O)(Nc1ccc(F)c(Nc2ncnc3ccc(-n4cnc5c(N6CC[C@@H](O)C6)nccc54)nc23)c1F)c1cccc(Cl)c1Cl [Example 512]	–	–
–	–	500 to 1000	CCOc1nccc2c1ncn2-c1ccc2ncnc(Nc3c(F)ccc(NS(=O)(=O)c4cccc(Cl)c4Cl)c3F)c2n1 [Example 513]	–	–
–	–	< 500	O=S(=O)(Nc1ccc(F)c(Nc2ncnc3ccc(-n4cc(N5CCCCS5(=O)=O)c5ccccc54)nc23)c1F)c1cccc(Cl)c1Cl [Example 514]	–	–
–	–	< 500	CC(C)(C#N)c1cccc2c1ncn2-c1ccc2ncnc(Nc3c(F)ccc(NS(=O)(=O)c4cccc(Cl)c4Cl)c3F)c2n1 [Example 520]	–	–
–	–	1000 to 10000	CS(=O)(=O)c1cccc2c1ncn2-c1ccc2ncnc(Nc3c(F)ccc(NS(=O)(=O)c4cccc(Cl)c4Cl)c3F)c2n1 [Example 521]	–	–
–	–	500 to 1000	COCCOc1nccc2c1ncn2-c1ccc2ncnc(Nc3c(F)ccc(NS(=O)(=O)c4cccc(Cl)c4Cl)c3F)c2n1 [Example 522]	–	–
–	–	500 to 1000	CCOc1cccc2c1ncn2-c1ccc2ncnc(Nc3c(F)ccc(NS(=O)(=O)c4cccc(Cl)c4Cl)c3F)c2n1 [Example 525]	–	–
–	–	1000 to 10000	Cc1c(F)cccc1S(=O)(=O)Nc1ccc(F)c(Nc2ncnc3ccc(-n4ncc5c4CN(CC(N)=O)CC5)nc23)c1F [Example 531]	–	–
–	–	1000 to 10000	O=C1CCCCN1c1cn(-c2ccc3ncnc(Nc4c(F)ccc(NS(=O)(=O)c5cccc(Cl)c5Cl)c4F)c3n2)c2ccccc12 [Example 532]	–	–
–	–	< 500	O=S(=O)(Nc1ccc(F)c(Nc2ncnc3ccc(-n4cc(-c5ccccc5)nn4)nc23)c1F)c1cccc(Cl)c1Cl [Example 534]	–	–
–	–	500 to 1000	O=S(=O)(Nc1ccc(F)c(Nc2ncnc3ccc(-c4cscn4)nc23)c1F)c1cccc(Cl)c1Cl [Example 536]	–	–
–	–	< 500	Cc1cn(-c2ccc3ncnc(Nc4c(F)ccc(NS(=O)(=O)c5cccc(Cl)c5Cl)c4F)c3n2)cn1 [Example 553]	–	–
–	–	< 500	O=S(=O)(Nc1ccc(F)c(Nc2ncnc3ccc(-n4cnc5c(CCO)cccc54)nc23)c1F)c1cccc(Cl)c1Cl [Example 556]	–	–

Further lines, the molecule ahead of its results:

SMILES	IC50 [1] [nM]	IC50 [2, 3] [nM]	IC50 ([2]; class symbol) [nM]	SW480 pERK Ymin % [1] [%]	HCT116 pERK Ymin % [2] [%]
COc1ccc(S(=O)(=O)Nc2ccc(F)c(Nc3ncnc4ccc(-n5cnc(C)c5C)nc34)c2F)cc1 [Ex 32]	1000 to 10000	1000 to 10000	–	2	17
COc1ccc(S(=O)(=O)Nc2ccc(F)c(Nc3ncnc4ccc(-n5ccnc5)nc34)c2F)cc1 [Ex 33]	1000 to 10000	1000 to 10000	–	0	5
COc1ccc(S(=O)(=O)Nc2ccc(F)c(Nc3ncnc4ccc(-c5cncnc5)nc34)c2F)c(C)c1 [Ex 56]	500 to 1000	1000 to 10000	–	7	−9
COc1ccc(S(=O)(=O)Nc2ccc(F)c(Nc3ncnc4ccc(-c5cnc(OC)nc5)nc34)c2F)c(C)c1 [Ex 57]	1000 to 10000	1000 to 10000	–	-9	-8
COc1ccc(S(=O)(=O)Nc2ccc(F)c(Nc3ncnc4ccc(-c5ccsc5)nc34)c2F)c(C)c1 [Ex 58]	1000 to 10000	10000 to 30000	–	2	−1
COc1ccc(S(=O)(=O)Nc2ccc(F)c(Nc3ncnc4ccc(-n5cnc6nccnc65)nc34)c2F)c(C)c1 [Ex 60]	1000 to 10000	1000 to 10000	–	10	−10
COc1ccc(S(=O)(=O)Nc2ccc(F)c(Nc3ncnc4ccc(-c5cnc6ccccc6c5)nc34)c2F)c(C)c1 [Ex 61]	1000 to 10000	1000 to 10000	–	3	−8
COc1ccc(S(=O)(=O)Nc2ccc(F)c(Nc3ncnc4ccc(-c5ccncc5)nc34)c2F)c(C)c1 [Ex 63]	< 500	1000 to 10000	–	10	−2.1
COc1ccc(S(=O)(=O)Nc2ccc(F)c(Nc3ncnc4ccc(-c5cn[nH]c5)nc34)c2F)c(C)c1 [Ex 64]	1000 to 10000	1000 to 10000	–	16	4
COc1ccc(S(=O)(=O)Nc2ccc(F)c(Nc3ncnc4ccc(-c5cnn(C)c5)nc34)c2F)c(C)c1 [Ex 65]	500 to 1000	10000 to 30000	–	14	−7
COc1ccc(S(=O)(=O)Nc2ccc(F)c(Nc3ncnc4ccc(-c5cccc(O)c5)nc34)c2F)c(C)c1 [Ex 72]	1000 to 10000	1000 to 10000	–	−7	1
COc1ccc(S(=O)(=O)Nc2ccc(F)c(Nc3ncnc4ccc(-c5cccc(CO)c5)nc34)c2F)c(C)c1 [Ex 74]	1000 to 10000	1000 to 10000	–	3.3	1
N#Cc1cccc(-c2ccc3ncnc(Nc4c(F)ccc(NS(=O)(=O)c5ccccc5Cl)c4F)c3n2)c1 [Ex 77]	1000 to 10000	1000 to 10000	–	2	−8
N#Cc1ccc(-c2ccc3ncnc(Nc4c(F)ccc(NS(=O)(=O)c5ccccc5Cl)c4F)c3n2)cc1 [Ex 78]	1000 to 10000	1000 to 10000	–	1	−9
COc1ccc(S(=O)(=O)Nc2ccc(F)c(Nc3ncnc4ccc(-n5cnc6c(NC(C)=O)cccc65)nc34)c2F)c(C)c1 [Ex 79]	500 to 1000	500 to 1000	–	9.4	1.5
CC(C)N1CCC(S(=O)(=O)c2cn(-c3ccc4ncnc(Nc5c(F)ccc(NS(=O)(=O)c6cccc(Cl)c6Cl)c5F)c4n3)c3ccccc23)CC1 [Example 468]	–	–	< 500	–	–
O=S(=O)(Nc1ccc(F)c(Nc2ncnc3ccc(-n4cc(S(=O)(=O)C5CCN(CC6CC6)CC5)c5ccccc54)nc23)c1F)c1cccc(Cl)c1Cl [Example 469]	–	–	< 500	–	–
O=S(=O)(Nc1ccc(F)c(Nc2ncnc3ccc(-n4cc(S(=O)(=O)C5CCN(C6CCC6)CC5)c5ccccc54)nc23)c1F)c1cccc(Cl)c1Cl [Example 470]	–	–	< 500	–	–
CP(C)(=O)c1cn(-c2ccc3ncnc(Nc4c(F)ccc(NS(=O)(=O)c5cccc(Cl)c5Cl)c4F)c3n2)c2ccccc12 [Example 472]	–	–	1000 to 10000	–	–
CN(C)CCCS(=O)(=O)c1cn(-c2ccc3ncnc(Nc4c(F)ccc(NS(=O)(=O)c5cccc(Cl)c5Cl)c4F)c3n2)c2ccccc12 [Example 484]	–	–	< 500	–	–
O=S(=O)(Nc1ccc(F)c(Nc2ncnc3ccc(-n4cc(CC5CCN(CC(F)F)CS5(=O)=O)c5ccccc54)nc23)c1F)c1cccc(Cl)c1Cl (stereo not drawn) [Example 488]	–	–	< 500	–	–
CC(C)(CC(F)F)S(=O)(=O)c1cn(-c2ccc3ncnc(Nc4c(F)ccc(NS(=O)(=O)c5cccc(Cl)c5Cl)c4F)c3n2)c2ccccc12 [Example 499]	–	–	< 500	–	–
O=C(c1cn(-c2ccc3ncnc(Nc4c(F)ccc(NS(=O)(=O)c5cccc(Cl)c5Cl)c4F)c3n2)c2ccccc12)C1CCOC1 (stereo not drawn) [Example 500]	–	–	1000 to 10000	–	–
O=[N+]([O-])c1cn(-c2ccc3ncnc(Nc4c(F)ccc(NS(=O)(=O)c5cccc(Cl)c5Cl)c4F)c3n2)c2ccccc12 [Example 506]	–	–	1000 to 10000	–	–
N#CC1(c2cccc3c2ncn3-c2ccc3ncnc(Nc4c(F)ccc(NS(=O)(=O)c5cccc(Cl)c5Cl)c4F)c3n2)CC1 [Example 552]	–	–	< 500	–	–
